A word on the EC50: it is the concentration at which the effect is half-maximal. In general, IC50 refers to the concentration needed to halve the response being measured. High values mean weaker potency in that assay, low ones greater potency in that assay.

Results on 35 compounds are retold here after US7348425B2, “Inhibitors of HCV replication” (Bristol-Myers Squibb Company, priority 2004, dated 2008).

T1 sequence (Q9WMX2 2420-2992): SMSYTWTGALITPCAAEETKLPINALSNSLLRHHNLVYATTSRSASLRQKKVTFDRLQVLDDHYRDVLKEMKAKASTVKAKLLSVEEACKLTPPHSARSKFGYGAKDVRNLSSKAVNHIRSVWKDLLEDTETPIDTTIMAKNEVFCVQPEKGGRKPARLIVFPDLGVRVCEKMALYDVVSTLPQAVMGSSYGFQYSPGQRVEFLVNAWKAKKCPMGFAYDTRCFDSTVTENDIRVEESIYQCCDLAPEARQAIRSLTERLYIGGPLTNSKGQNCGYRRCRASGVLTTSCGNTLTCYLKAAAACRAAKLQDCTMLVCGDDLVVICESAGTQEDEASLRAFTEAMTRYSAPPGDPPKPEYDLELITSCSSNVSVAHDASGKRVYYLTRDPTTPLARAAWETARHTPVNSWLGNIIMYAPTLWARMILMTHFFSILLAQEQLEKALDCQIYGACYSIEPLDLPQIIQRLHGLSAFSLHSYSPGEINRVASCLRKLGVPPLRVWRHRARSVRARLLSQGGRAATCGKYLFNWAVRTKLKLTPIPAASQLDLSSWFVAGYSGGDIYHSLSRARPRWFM

One assay deals with HCV replicon. Put plainly: HCV replicon FRET assay. Type of assay: cell-based. Conditions: Hepatitis C virus; FRET assay; read-out: EC50. The procedure: The IC50 values for compounds were determined using seven different [I]. IC50 values were calculated from the inhibition using the formula y=A+((B−A)/(1+((C/x)^D))). FRET Assay Preparation. To perform the HCV FRET screening assay, 96-well cell culture plates were used. The FRET peptide (Anaspec, Inc.) (Taliani et al., Anal. Biochem. 240:60-67 (1996), hereby incorporated by reference in its entirety) contains a fluorescence donor, EDANS, near one end of the peptide and an acceptor, DABCYL, near the other end. The fluorescence of the peptide is quenched by […] resonance energy transfer (RET) between the donor and the acceptor, but as the NS3 protease cleaves the peptide the products are released from RET quenching and the fluorescence of the donor becomes apparent. The assay reagent was made as follows: 5× cell Luciferase cell culture lysis reagent from Promega (#E153A) diluted to 1× with dH2O, NaCl added to 150 mM final, the FRET peptide diluted to 20 uM final from a 2 mM stock.
To prepare plates, HCV replicon cells, with or without a Renilla luciferase reporter gene, were trypsinized and placed into each well of a 96-well plate with titrated test compounds added in columns 3 through 12; columns 1 and 2 contained a control compound (HCV protease inhibitor), and the bottom row contained cells without compound. The plates were then placed in a CO2 incubator at 37 degrees C.
Assays. Subsequent to addition of the test compounds described above (FRET Assay Preparation), at various times the plate was removed and Alamar blue solution (Trek Diagnostics, #00-100) was added per well as a measure of cellular toxicity. After reading in a Cytoflour 4000 instrument (PE Biosystems), plates were rinsed with PBS and then used for FRET assay by the addition of 30 ul of the FRET peptide assay reagent described above (FRET Assay Preparation) per well. The plate was then placed into the Cytoflour 4000 instrument which had been set to 340 excite/490 emission, automatic mode for 20 cycles and the plate read in a kinetic mode. Typically, the signal to noise using an endpoint analysis after the reads was at least three-fold. Alternatively, after Alamar blue reading, plates were rinsed with PBS, 50 ul of DMEM (high glucose) without phenol red was added and plates were then used for luciferase assay using the Promega Dual-Glo Luciferase Assay System.
Compound analysis was determined by quantification of the relative HCV replicon inhibition and the relative cytotoxicity values. To calculate cytoxicity values, the average Alamar Blue fluorescence signals from the control wells were set as 100% non-toxic. The individual signals in each of the compound test wells were then divided by the average control signal and multiplied by 100% to determine […]. To calculate the HCV replicon inhibition values, an average background value was obtained from the two wells containing the highest amount of HCV protease inhibitor at the end of the assay period. These numbers were similar to those obtained from naïve Huh-7 cells.
The background numbers were then subtracted from the average signal obtained from the control wells and this number was used as 100% activity. The individual signals in each of the compound test wells were then divided by the averaged control values after background subtraction and multiplied by 100% to determine percent activity. EC50 values for a protease inhibitor titration were calculated as the concentration which caused a 50% reduction in FRET or luciferase activity. The two numbers generated for the compound plate, percent cytoxicity and percent activity were used to determine compounds of interest for further analysis.
(In general: Replicon systems follow genome replication, usually without infectious particles.)
On to `O=C(O)c1ccc2c(C3CCCCC3)c3n(c2c1)C/C=C\COc1ccccc1-3`, for which the EC50 fell in the range of 1 to 10 µM.

`COC(=O)/C=C/c1ccc(NC(=O)C2(NC(=O)c3ccc4c(C5CCCCC5)c5n(c4c3)CCCn3ccnc3-5)CCCC2)cc1`: the concentration for a half-maximal effect (EC50) is 1 to 10 µM.

As for `CC(C)(C)OC(=O)N1CCCCn2c(c(C3CCCCC3)c3ccc(C(=O)NC4(C(=O)Nc5ccc(/C=C/C(=O)O)cc5)CCCC4)cc32)-c2ccccc21`, the EC50 was in the range of 1 to 10 µM.

For `O=C(NC1(C(=O)O)CCCC1)c1ccc2c(C3CCCCC3)c3n(c2c1)CCCCNc1ccccc1-3`, the EC50 was in the range of 1 to 10 µM.

As to `COC(=O)/C=C/c1ccc(NC(=O)C2(NC(=O)c3ccc4c(C5CCCCC5)c5n(c4c3)CCCc3nc[nH]c3-5)CCCC2)cc1`, the half-maximal effective concentration (EC50) was 1 to 10 µM.

Take `O=C(O)/C=C/c1ccc(NC(=O)C2(NC(=O)c3ccc4c(C5CCCCC5)c5n(c4c3)CCCc3nc[nH]c3-5)CCCC2)cc1`: the concentration giving a half-maximal response (EC50) fell in the range of 1 to 10 µM.

In the case of `O=C(O)c1ccc2c(C3CCCCC3)c3n(c2c1)CCCc1nc[nH]c1-3`, the EC50 is more than 10 µM.

Take `CN1C(=O)Cn2c(c(C3CCCCC3)c3ccc(C(=O)NS(=O)(=O)N(C)C)cc32)-c2ccccc21`: the 50% effective concentration (EC50) is 0.01 to 1 µM.

For `O=C(O)c1ccc(-c2cnc(NC(=O)C3(NC(=O)c4ccc5c(C6CCCCC6)c6n(c5c4)CC=Cc4ccccc4-6)CCCC3)s2)cc1`, the EC50 was in the range of 0.01 to 1 µM.

Take `O=C(NC1(C(=O)Nc2nccs2)CCCC1)c1ccc2c(C3CCCCC3)c3n(c2c1)CC=Cc1ccccc1-3`: the half-maximal effective concentration (EC50) lay within 0.01 to 1 µM.

As to `O=C(NC1(C(=O)O)CCNCC1)c1ccc2c(C3CCCCC3)c3n(c2c1)CC=Cc1ccccc1-3`, the EC50 lay in the range of 1 to 10 µM.

For the compound `O=C(O)c1ccc2c(C3CCCCC3)c3n(c2c1)CCCc1nccnc1-3`, the EC50 lay in the range of 1 to 10 µM.

`O=C(O)c1ccc2c(C3CCCCC3)c3n(c2c1)CCNc1ccccc1-3`: the EC50 was in the range of 1 to 10 µM.

As for `COC(=O)/C=C/c1ccc(NC(=O)C2(NC(=O)c3ccc4c(C5CCCCC5)c5n(c4c3)CCCc3nccnc3-5)CCCC2)cc1`, the EC50 was in the range of 1 to 10 µM.

Regarding `COC(=O)/C=C/c1ccc(NC(=O)C2(NC(=O)c3ccc4c(C5CCCCC5)c5n(c4c3)CC(C(=O)NCCN(C)C)=Cc3ccccc3-5)CCCC2)cc1`, the half-maximal effective concentration (EC50) fell in the range of 0.01 to 1 µM.

As for `COC(=O)/C=C/c1ccc(NC(=O)C2(NC(=O)c3ccc4c(C5CCCCC5)c5n(c4c3)CC(=O)N(C)c3ccccc3-5)CCCC2)cc1`, the EC50 lay within 0.01 to 1 µM.

As to `CCOC(=O)/C=C/c1ccc(NC(=O)C2(NC(=O)c3ccc4c(C5CCCCC5)c5n(c4c3)CCN(C(=O)OC(C)(C)C)c3ccccc3-5)CCCC2)cc1`, the EC50 was in the range of 0.01 to 1 µM.

Turning to `CCOC(=O)/C=C/c1ccc(NC(=O)C2(NC(=O)c3ccc4c(C5CCCCC5)c5n(c4c3)CCNc3ccccc3-5)CCCC2)cc1`, the EC50 was 0.01 to 1 µM.

As for `O=C(O)c1ccc2c(C3CCCCC3)c3n(c2c1)C(=O)NCc1ccccc1-3`, the EC50 is more than 10 µM.

As to `CN1Cc2ccccc2-c2c(C3CCCCC3)c3ccc(C(=O)O)cc3n2C1=O`, the EC50 is more than 10 µM.

`CC1=C(C(=O)N2CCOCC2)Cn2c(c(C3CCCCC3)c3ccc(C(=O)NS(=O)(=O)N(C)C)cc32)-c2ccccc21`: the EC50 lay within 0.01 to 1 µM.

Regarding `COC(=O)c1ccc2c(C3CCCCC3)c3n(c2c1)CC(C(=O)N1C[C@@H](C)O[C@@H](C)C1)=Cc1c(OC)cccc1-3`, the EC50 was more than 3.3 µM.

Regarding `COc1cc2c(cn1)-c1c(C3CCCCC3)c3ccc(C(=O)O)cc3n1CC(C(=O)N1C[C@@H](C)O[C@@H](C)C1)=C2`, the EC50 fell in the range of 1 to 10 µM.

A further assay addresses T1, HCV NS5B RdRp genotype 1b (Hepatitis C virus genotype 1b, UniProt Q9WMX2).
T1 construct: The protein was expressed with an 18 amino acid C-terminal truncation to enhance the solubility; made in house; host or cells: E. coli BL21 (DE3), pET21a
Briefly: Modified HCV NS5B RdRp enzyme assay (with preincubation). Type of assay: biochemical. Conditions: modified method (with preincubation). The procedure:
HCVNS5B RdRp cloning, expression, and purification. The cDNA encoding the NS5B protein of HCV, genotype 1b, was cloned into the pET21a expression vector. The protein was expressed with an 18 amino acid C-terminal truncation to enhance the solubility. The E. coli competent cell line BL21 (DE3) was used for expression of the protein. Cultures were grown at 37° C. for ˜4 hours until the cultures reached an optical density of 2.0 at 600 nm. The cultures were cooled to 20° C. and induced with 1 mM IPTG. Fresh ampicillin was added to a final concentration of 50 μg/ml and the cells were grown overnight at 20° C.
Cell pellets (3 L) were lysed for purification to yield 15-24 mgs of purified NS5B. The lysis buffer consisted of 20 mM Tris-HCl, pH 7.4, 500 mM NaCl, 0.5% triton X-100, 1 mM DTT, 1 mM EDTA, 20% glycerol, 0.5 mg/ml lysozyme, 10 mM MgCl2, 15 ug/ml deoxyribonuclease I, and Complete TM protease inhibitor tablets (Roche). After addition of the lysis buffer, frozen cell pellets were resuspended using a tissue homogenizer. To reduce the viscosity of the sample, aliquots of the lysate were sonicated on ice using a microtip attached to a Branson sonicator. The sonicated lysate was centrifuged at 100,000×g for 1 hr at 4° C. and filtered through a 0.2 μm filter unit (Corning).
The protein was purified using three sequential chromatography steps: Heparin sepharose CL-6B, polyU sepharose 4B, and Hitrap SP sepharose (Pharmacia). The chromatography buffers were identical to the lysis buffer but contained no lysozyme, deoxyribonuclease I, MgCl2 or protease inhibitor and the NaCl concentration of the buffer was adjusted according to the requirements for charging the protein onto the column. Each column was eluted with a NaCl gradient which varied in length from 5-50 column volumes depending on the column type. After the final chromatography step, the resulting purity of the enzyme is >90% based on SDS-PAGE analysis. The enzyme was aliquoted and stored at −80° C.
Standard HCV NS5B RdRp enzyme assay. HCV RdRp genotype Ib assays were run in a final volume of 60 μl in 96 well plates (Costar 3912). The assay buffer is composed of 20 mM Hepes, pH 7.5, 2.5 mM KCl, 2.5 mM MgCl2, 1 mM DTT, 1.6 U RNAse inhibitor (Promega N2515), 0.1 mg/ml BSA (Promega R3961), and 2% glycerol. All compounds were serially diluted (3-fold) in DMSO and diluted further in water such that the final concentration of DMSO in the assay was 2%. HCV RdRp genotype 1b enzyme was used at a final concentration of 28 nM. A polyA template was used at 6 nM, and a biotinylated oligo-dT12 primer was used at 180 nM final concentration. Template was obtained commercially (Amersham 27-4110). Biotinylated primer was prepared by Sigma Genosys. ^3H-UTP was used at 0.6 μCi (0.29 μM total UTP). Reactions were initiated by the addition of enzyme, incubated at 30° C. for 60 min, and stopped by adding 25 μl of 50 mM EDTA containing SPA beads (4 μg/μl, Amersham RPNQ 0007). Plates were read on a Packard Top Count NXT after >1 hr incubation at room temperature.
Modified HCV NS5B RdRp enzyme assay. A modified enzyme assay was performed essentially as described for the standard enzyme assay except for the following: The biotinylated oligo dT12 primer was precaptured on streptavidin-coated SPA beads by mixing primer and beads in assay buffer and incubating at room temperature for one hour. Unbound primer was removed after centrifugation. The primer-bound beads were resuspended in 20 mM Hepes buffer, pH 7.5 and used in the assay at final concentrations of 20 nM primer and 0.67 μg/μl beads. Order of addition in the assay: enzyme (14 nM) was added to diluted compound followed by the addition of a mixture of template (0.2 nM), ^3H-UTP (0.6 μCi, 0.29 μM), and primer-bound beads, to initiate the reaction; concentrations given are final. Reactions were allowed to proceed for 4 hours at 30° C.
The IC50 values for compounds were determined using seven different [I]. […]
On to `COC(=O)c1ccc2c(C3CCCCC3)c3n(c2c1)CC(C(=O)N1CCOCC1)=Cc1ccc(Cl)cc1-3`, for which the IC50 was more than 1 µM.

`O=C(NS(=O)(=O)C1CC1)c1ccc2c(C3CCCCC3)c3n(c2c1)CC(C(=O)N1CCOCC1)Cc1ccccc1-3` (centres unmarked) [drawing 288] yielded an IC50 of 0.02 to 1 µM.

Regarding `O=C(NS(=O)(=O)C1CC1)c1ccc2c(C3CCCCC3)c3n(c2c1)CC(C(=O)N1CCOCC1)Cc1ccccc1-3` (centres unmarked) [drawing 289], the IC50 lay within 0.02 to 1 µM.

`COC(=O)c1ccc2c(C3CCCCC3)c3n(c2c1)CC(C(=O)OCc1ccccc1)=Cc1ccccc1-3` [drawing 322]: the IC50 was more than 1 µM.

Consider `CS(=O)(=O)NC(=O)c1ccc2c(C3CCCCC3)c3n(c2c1)CC(C(=O)N1CCOCC1)Cc1ccccc1-3` (centres unmarked) [drawing 348], for which the IC50 was in the range of 0.02 to 1 µM.

The assay is the same for the next values; noted with them: preincubation protocol.
As for `COC(=O)c1ccc2c(C3CCCCC3)c3n(c2c1)C(O)c1cc(N(C)C)ccc1-3` (centres unmarked), the 50% inhibitory concentration (IC50) is more than 4 µM.

As for `COC(=O)C1=Cc2occc2-c2c(C3CCCCC3)c3ccc(C(=O)OC)cc3n2C1`, the IC50 is more than 12.5 µM.

With `COC(=O)c1ccc2c(C3CCCCC3)c3n(c2c1)CC(C(=O)O)=Cc1occc1-3`, the IC50 fell in the range of 1 to 10 µM.

For the compound `COC(=O)c1ccc2c(C3CCCCC3)c3n(c2c1)CC(C(=O)NCC=O)=Cc1cc(OC)ccc1-3`, the IC50 was 0.01 to 1 µM.

As to `COC(=O)C1=Cc2cc(N(C)C)ccc2-c2c(C3CCCCC3)c3ccc(C(=O)OC)cc3n2C1`, the half-maximal inhibitory concentration (IC50) is more than 12.5 µM.

For the compound `COC(=O)c1ccc2c(C3CCCCC3)c3n(c2c1)CC(C(=O)N1CCOCC1)=Cc1occc1-3`, the concentration for half-maximal inhibition (IC50) was more than 4 µM.

For the compound `COC(=O)c1ccc2c(C3CCCCC3)c3n(c2c1)CC(C(=O)N1C[C@@H](C)O[C@@H](C)C1)=Cc1occc1-3`, the IC50 was more than 4 µM.
